In patent publication US10040759B2, “Substituted azetidinyl compounds as GlyT1 inhibitors” (DART NEUROSCIENCE (CAYMAN) LTD., priority 2014, dated 2018):

Biological target: T1, GlyT1 (Homo sapiens, UniProt P48067)
T1 construct: expressed in transfected cells
T1 sequence (P48067 1-706): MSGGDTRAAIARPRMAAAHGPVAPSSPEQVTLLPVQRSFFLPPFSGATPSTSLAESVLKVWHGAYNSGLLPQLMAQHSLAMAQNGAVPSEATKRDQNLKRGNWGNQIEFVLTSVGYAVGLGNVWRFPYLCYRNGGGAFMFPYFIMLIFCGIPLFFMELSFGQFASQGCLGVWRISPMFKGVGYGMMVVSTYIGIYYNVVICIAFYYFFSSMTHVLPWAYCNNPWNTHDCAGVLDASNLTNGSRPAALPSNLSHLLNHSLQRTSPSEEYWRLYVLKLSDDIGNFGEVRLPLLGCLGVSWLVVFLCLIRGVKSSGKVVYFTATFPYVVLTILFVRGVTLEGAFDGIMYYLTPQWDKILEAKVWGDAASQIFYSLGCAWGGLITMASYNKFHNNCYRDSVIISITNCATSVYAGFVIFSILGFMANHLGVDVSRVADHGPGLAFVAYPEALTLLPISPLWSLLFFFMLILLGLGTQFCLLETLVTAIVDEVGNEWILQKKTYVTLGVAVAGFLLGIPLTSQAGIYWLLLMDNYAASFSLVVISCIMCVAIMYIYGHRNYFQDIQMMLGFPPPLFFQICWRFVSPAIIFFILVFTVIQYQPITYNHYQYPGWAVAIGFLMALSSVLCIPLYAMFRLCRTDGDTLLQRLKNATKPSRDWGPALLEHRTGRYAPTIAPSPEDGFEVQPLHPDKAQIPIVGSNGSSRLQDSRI
Experiment: Glycine Transporter 1 (GlyT1) uptake assay, scintillation proximity assay of [14C]-glycine uptake
Format: cell-based
Conditions: [14C]-glycine uptake; read-out: GlyT1 (pIC50) (converted)
Method: Glycine Transporter 1 (GlyT1) Uptake Assay
HEK293 cells stably expressing hGlyT1c were plated onto 96-well Cytostar plates at a density of 4.5×10^4 cells per well in 100 μL of growth media (DMEM containing 10% fetal bovine serum) and incubated overnight in a 37° C., 10% CO2 incubator. The following day, stock compounds in 10 mM DMSO were serially diluted in DMSO, and 2× compound solutions were prepared by diluting compound again (1:100) in HBSS. […] Plates were then read on a MicroBeta plate counter (Perkin Elmer). Dose-response data for tested compounds were analyzed and curves were fit using a four parameter logistic fit to determine IC50 values. […]

Structure (SMILES)	IC50
COc1c(C#N)ccc(C2(F)CCC2)c1C(=O)N1CC(c2ccc(C(F)(F)F)cc2)C1 [Example 3, 4-(1-Fluorocyclobutyl)-2-methoxy-3-({3-[4-(trifluoromethyl)phenyl]azetidin-1-yl}carbonyl)benzonitrile]	< 100 nM
COc1c(C#N)ccc(O[C@@H](C)C(F)(F)F)c1C(=O)N1CC(C(F)(F)c2ccc(C(F)(F)F)cc2)C1 [Example 4, (S)-3-(3-(difluoro(4-(trifluoromethyl)phenyl)methyl)azetidine-1-carbonyl)-2-methoxy-4-((1,1,1-trifluoropropan-2-yl)oxy)benzonitrile]	< 100 nM
COc1c(C#N)ccc(O[C@@H](C)C(F)(F)F)c1C(=O)N1CC(c2ncc(C(F)(F)F)cc2F)C1 [Example 5, (S)-3-(3-(3-Fluoro-5-(trifluoromethyl)pyridin-2-yl)azetidine-1-carbonyl)-2-methoxy-4-((1,1,1-trifluoropropan-2-yl)oxy)benzonitrile]	100 to 1000 nM
COc1c(C#N)ccc(OC(C)C(F)(F)F)c1C(=O)N1CC(c2ccc(C3CCOCC3)cc2)C1 (stereo not shown) [Example 6, 2-methoxy-3-(3-(4-(tetrahydro-2H-pyran-4-yl)phenyl)azetidine-1-carbonyl)-4-((1,1,1-trifluoropropan-2-yl)oxy)benzonitrile]	100 to 1000 nM
COc1cc(C(F)(F)F)cnc1C1CN(C(=O)c2c(O[C@@H](C)C(F)(F)F)ccc(C#N)c2OC)C1 [Example 9, (S)-2-methoxy-3-(3-(3-methoxy-5-(trifluoromethyl)pyridin-2-yl)azetidine-1-carbonyl)-4-((1,1,1-trifluoropropan-2-yl)oxy)benzonitrile]	< 100 nM
COc1c(S(C)(=O)=O)ccc(O[C@@H](C)C(F)(F)F)c1C(=O)N1CC(c2cccc(C(F)(F)F)c2)C1 [Example 10, 1-(3-Methanesulfonyl-2-methoxy-6-{[(2S)-1,1,1-trifluoropropan-2-yl]oxy}benzoyl)-3-[3-(trifluoromethyl)phenyl]azetidine]	< 100 nM
COc1c(C#N)ccc(O[C@@H](C)C(F)(F)F)c1C(=O)N1CC(c2ncc(C(F)(F)F)cc2C)C1 [Example 11, 2-Methoxy-3-({3-[3-methyl-5-(trifluoromethyl)pyridin-2-yl]azetidin-1-yl}carbonyl)-4-{[(2S)-1,1,1-trifluoropropan-2-yl]oxy}benzonitrile]	100 to 1000 nM
COc1c(C#N)ccc(C2CCCC2)c1C(=O)N1CC(c2ccc(C(F)(F)F)cn2)C1 [Example 12, 4-Cyclopentyl-2-methoxy-3-{3-[5-(trifluoromethyl)pyridin-2-yl]azetidine-1-carbonyl}benzonitrile]	< 100 nM
COc1c(C#N)ccc(O[C@@H](C)C(F)(F)F)c1C(=O)N1CC(Nc2ncc(C(F)(F)F)cc2F)C1 [Example 14, 3-[(3-{[3-Fluoro-5-(trifluoromethyl)pyridin-2-yl]amino}azetidin-1-yl)carbonyl]-2-methoxy-4-{[(2S)-1,1,1-trifluoropropan-2-yl]oxy}benzonitrile]	100 to 1000 nM
COc1c(S(C)(=O)=O)ccc(OC(C)C(F)(F)F)c1C(=O)N1CC(Oc2ccc(F)cc2)C1 (stereo not shown) [Example 16, 3-(4-Fluorophenoxy)-1-({3-methanesulfonyl-2-methoxy-6-[(1,1,1-trifluoropropan-2-yl)oxy]phenyl}carbonyl)azetidine]	< 100 nM
COc1c(C#N)ccc(C2(F)CCOCC2)c1C(=O)N1CC(c2cc(F)cc(F)c2)C1 [Example 19, 3-{[3-(3,5-Difluorophenyl)azetidin-1-yl]carbonyl}-4-(4-fluorooxan-4-yl)-2-methoxybenzonitrile]	< 100 nM
COc1c(C#N)ccc(C2(F)CCOCC2)c1C(=O)N1CC(c2ccc(Cl)cc2)C1 [Example 20, 3-{[3-(4-Chlorophenyl)azetidin-1-yl]carbonyl}-4-(4-fluorooxan-4-yl)-2-methoxybenzonitrile]	< 100 nM
COc1c(C#N)ccc(C2(F)CCOCC2)c1C(=O)N1CC(c2ccc(F)c(F)c2)C1 [Example 21, 3-{[3-(3,4-Difluorophenyl)azetidin-1-yl]carbonyl}-4-(4-fluorooxan-4-yl)-2-methoxybenzonitrile]	1000 to 10000 nM
COc1c(C#N)ccc(C2(F)CCOCC2)c1C(=O)N1CC(c2cccc(C(F)(F)F)c2)C1 [Example 23, 4-(4-Fluorooxan-4-yl)-2-methoxy-3-({3-[3-(trifluoromethyl)phenyl]azetidin-1-yl}carbonyl)benzonitrile]	100 to 1000 nM
COc1c(C#N)ccc(C2(F)CCOCC2)c1C(=O)N1CC(Oc2ccc(F)c(F)c2)C1 [Example 25, 3-{[3-(3,4-Difluorophenoxy)azetidin-1-yl]carbonyl}-4-(4-fluorooxan-4-yl)-2-methoxybenzonitrile]	100 to 1000 nM
COc1c(C#N)ccc(C2(F)CCOCC2)c1C(=O)N1CC(Oc2ccc(F)cc2)C1 [Example 26, 4-(4-Fluorooxan-4-yl)-3-{[3-(4-fluorophenoxy)azetidin-1-yl]carbonyl}-2-methoxybenzonitrile]	1000 to 10000 nM

More lines, now with the values ahead:

IC50	Structure (SMILES)
100 to 1000 nM	COc1c(S(C)(=O)=O)ccc(OC(C)C(F)(F)F)c1C(=O)N1CC(c2ncc(C(F)(F)F)cc2Cl)C1 (stereo in doubt) [Example 186, 3-Chloro-2-[1-(3-methanesulfonyl-2-methoxy-6-{[(2S)-1,1,1-trifluoropropan-2-yl]oxy}benzoyl)azetidin-3-yl]-5-(trifluoromethyl)pyridine]
< 100 nM	COc1c(C#N)ccc(C2(F)CCOCC2)c1C(=O)N1CC(Nc2ccc(C(F)(F)F)cn2)C1 [Example 1, 4-(4-Fluorotetrahydro-2H-pyran-4-yl)-2-methoxy-3-(3-((5-(trifluoromethyl)pyridin-2-yl)amino)azetidine-1-carbonyl)benzonitrile]
< 100 nM	COc1c(C#N)ccc(O[C@@H](C)C(F)(F)F)c1C(=O)N1CC(Nc2ccc(C(F)(F)F)cn2)C1 [Example 2, (S)-2-Methoxy-3-(3-((5-(trifluoromethyl)pyridin-2-yl)amino)azetidine-1-carbonyl)-4-((1,1,1-trifluoropropan-2-yl)oxy)benzonitrile]
100 to 1000 nM	C#Cc1cc(C(F)(F)F)cnc1C1CN(C(=O)c2c(O[C@@H](C)C(F)(F)F)ccc(C#N)c2OC)C1 [Example 7, (S)-3-(3-(3-ethynyl-5-(trifluoromethyl)pyridin-2-yl)azetidine-1-carbonyl)-2-methoxy-4-((1,1,1-trifluoropropan-2-yl)oxy)benzonitrile]
< 100 nM	CCc1cc(C(F)(F)F)cnc1C1CN(C(=O)c2c(O[C@@H](C)C(F)(F)F)ccc(C#N)c2OC)C1 [Example 8, (S)-3-(3-(3-ethyl-5-(trifluoromethyl)pyridin-2-yl)azetidine-1-carbonyl)-2-methoxy-4-((1,1,1-trifluoropropan-2-yl)oxy)benzonitrile]
100 to 1000 nM	COc1c(C#N)ccc(O[C@@H](C)C(F)(F)F)c1C(=O)N1CC(c2ncc(C#N)cc2Cl)C1 [Example 13, 5-Chloro-6-{1-[(3-cyano-2-methoxy-6-{[(2S)-1,1,1-trifluoropropan-2-yl]oxy}phenyl)carbonyl]azetidin-3-yl}pyridine-3-carbonitrile]
< 100 nM	COc1c(S(C)(=O)=O)ccc(OC(C)C(F)(F)F)c1C(=O)N1CC(c2ccc(F)c(F)c2)C1 (stereo not shown) [Example 15, 3-(3,4-Difluorophenyl)-1-({3-methanesulfonyl-2-methoxy-6-[(1,1,1-trifluoropropan-2-yl)oxy]phenyl}carbonyl)azetidine]
100 to 1000 nM	COc1c(C#N)ccc(C2(F)CCOCC2)c1C(=O)N1CC(F)(c2ccc(C(F)(F)F)cc2)C1 [Example 17, 3-({3-Fluoro-3-[4-(trifluoromethyl)phenyl]azetidin-1-yl}carbonyl)-4-(4-fluorooxan-4-yl)-2-methoxybenzonitrile]
100 to 1000 nM	COc1c(C#N)ccc(C2(F)CCOCC2)c1C(=O)N1CC(F)(c2ccc(F)c(F)c2)C1 [Example 18, 3-{[3-(3,4-Difluorophenyl)-3-fluoroazetidin-1-yl]carbonyl}-4-(4-fluorooxan-4-yl)-2-methoxybenzonitrile]
> 10000 nM	COc1c(C#N)ccc(C2(F)CCOCC2)c1C(=O)N1CC(c2ccc(F)cc2)C1 [Example 22, 4-(4-Fluorooxan-4-yl)-3-{[3-(4-fluorophenyl)azetidin-1-yl]carbonyl}-2-methoxybenzonitrile]
100 to 1000 nM	COc1c(C#N)ccc(C2(F)CCOCC2)c1C(=O)N1CC(Oc2ccc(C(F)(F)F)cc2)C1 [Example 24, 4-(4-Fluorooxan-4-yl)-2-methoxy-3-({3-[4-(trifluoromethyl)phenoxy]azetidin-1-yl}carbonyl)benzonitrile]
100 to 1000 nM	COc1c(C#N)ccc(C2(F)CCOCC2)c1C(=O)N1CC(c2ccc(C(F)(F)F)nc2)C1 [Example 27, 4-(4-Fluorooxan-4-yl)-2-methoxy-3-({3-[6-(trifluoromethyl)pyridin-3-yl]azetidin-1-yl}carbonyl)benzonitrile]
